Two compounds from patent US20250171434A1, “SEC61 INHIBITORS AND USE THEREOF” (KEZAR LIFE SCIENCES, INC., priority 2022, published 2025) can be followed below.

Bounds are passed on as bounds.

The EC50 is the midpoint of the concentration-response curve.

The subject of data set [1] is PD1-ss+10aa/Gaussia Luciferase. The data set is described as follows: Dox-Induced PD1-ss-Gluc Assay. The format is cell-based. To be noted: Flp-In 293 T-REx cells, 24 hours with doxycycline; Table 3; read-out: 24 hr Dox Inducible PD1ssGluc 293FRT/TO: Mean IC50. An outline of the steps:
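Stable Flp-In 293 T-REx cells carried a doxycycline-inducible construct of Gaussia luciferase fused to the PD1 signal sequence plus 10 amino acids. Cells were plated the day before, then treated with compound dilutions in DMSO/media containing doxycycline at 37 °C, 5% CO2.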

Data set [2] concerns IL-2-FL/Gaussia Luciferase. The data set is described as follows: Dox Inducible IL2-FL-Gluc Assay. To be noted: Table 3; for IC50: Flp-In 293 T-REx cells, 24 hours with doxycycline, read-out: 24 hr Dox Inducible IL2FLGluc 293FRT/TO: Mean IC50; for 24 hr Dox Inducible IL2FLGluc 293FRT/TO: IL2/PD1: ratio of IC50s IL2/PD1. The format is cell-based. An outline of the steps:
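Flp-In 293 T-REx cells stably carrying doxycycline-inducible full-length IL-2 (aa 1-153) fused at its C-terminus to Gaussia luciferase, selected with hygromycin and blasticidin. Cells were plated the day before, then treated with compounds in DMSO/media containing doxycycline at 37° C, 5% CO2.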

Data set [3] concerns HER3-ss+4aa/Gaussia Luciferase. Kind of data set: Dox-Inducible Her3-ss-Gluc Assay. It is filed as cell-based. To be noted: Flp-In 293 T-REx cells, 24 hours with doxycycline; Table 3; read-out: 24 hr Dox Inducible Her3(ss + 4)Gluc 293FRT/TO: Mean IC50. The gist of the method: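 Stable Flp-In 293 T-REx line expressing Gaussia luciferase fused to the HER3 signal sequence plus 4 amino acids under tetracycline-regulated (T-REx) control. Cells plated the day before, then treated with compound dilutions in DMSO/media containing doxycycline and incubated at 37° C., 5% CO2.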

The subject of data set [4] is TNFα-FL/Gaussia Luciferase. Kind of data set: Dox Induced TNFα-FL-Gluc Assay. The format is cell-based. To be noted: Table 3; for IC50: Flp-In 293 T-REx cells, 24 hours with doxycycline, read-out: 24 hr Dox Inducible TNFaFLGluc 293FRT/TO: Mean IC50; for 24 hr Dox Inducible TNFaFLGluc 293FRT/TO: TNF/PD1: ratio of IC50s TNF/PD1. An outline of the steps:
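Flp-In 293 T-REx cells stably expressing full-length TNFα (aa 1-233) fused at its C-terminus to Gaussia luciferase under tetracycline-regulated control were plated the day before assay. Compound dilutions in DMSO/media containing doxycycline were added and incubated at 37 °C, 5% CO2. Unspecified stereochemistry denotes stereoisomer mixtures.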

Data set [5] has as its system multiple myeloma cell line NCI-H929. Kind of data set: H929 Cell Viability Assay. The conditions noted are these: Homo sapiens; NCI-H929 cells, 48 hours, Celltiter-Glo; read-out: 48 hr H929 Viability Celltiter-Glo: Mean EC50. The format is cell-based, human. An outline of the steps: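 NCI-H929 cells, resuspended in RPMI 1640 with 10% FBS and 2 mM glutamine, were treated with compound dilutions in DMSO/media and incubated 48 hours at 37° C, 5% CO2. Viability was read by CellTiter-Glo luminescence. Compounds drawn without stereochemistry were tested as stereoisomer mixtures.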
For orientation: In ATP-based viability assays light output follows the ATP content of the culture.

The test system of data set [6] is multiple myeloma cell line U266B1. The data set is described as follows: U266 Cell Viability Assay. It is filed as cell-based. To be noted: Homo sapiens, U-266; U266B1 cells, 48 hours, Celltiter-Glo; read-out: 48 hr U266 Viability Celltiter-Glo: Mean EC50. The gist of the method:
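Cells grown in RPMI 1640 with 10% FBS, 2 mM glutamine and penicillin/streptomycin were exposed to compound dilutions in DMSO/media for 48 hours at 37° C., 5% CO2. Viability was read by CellTiter-Glo luminescence. Undefined stereocentres mean data for stereoisomer mixtures.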

The nature of data set [7]: Liver Microsome Stability Assay, mouse. The format is in vitro ADME. To be noted: mouse liver microsomes 1.0 mg/mL, 1.0 uM compound, 37° C., 1 mM NADPH. An outline of the steps: (§1)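 Microsomes (1.0 mg/mL) in 0.1 M potassium phosphate are mixed with 1.0 uM test compound and 0.4% DMSO. Incubation runs at 37° C with or without 1 mM NADPH, and samples are quenched at 0 and 30 minutes.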
(In general: Microsomes from liver hold many membrane-bound enzymes, among them those of drug oxidation.)

Data set [8] is described as follows: Liver Microsome Stability Assay, rat. The conditions noted are these: rat liver microsomes 1.0 mg/mL, 1.0 uM compound, 37° C., 1 mM NADPH. The format is in vitro ADME. An outline of the steps: as §1
The nature of data set [9]: Liver Microsome Stability Assay, monkey. It is filed as in vitro ADME. To be noted: monkey liver microsomes 1.0 mg/mL, 1.0 uM compound, 37° C., 1 mM NADPH. An outline of the steps: as §1
The nature of data set [10]: Liver Microsome Stability Assay, human. It is filed as in vitro ADME. To be noted: human liver microsomes 1.0 mg/mL, 1.0 uM compound, 37° C., 1 mM NADPH. The gist of the method:
as §1

As to `C/C(=C\c1cn(C(C)C)cn1)c1csc(NC(=O)c2cccn2Cc2ccncc2)n1` [Compound B25, (E)-N-(4-(1-(1-isopropyl-1H-imidazol-4-yl)prop-1-en-2-yl)thiazol-2-yl)-1-(pyridin-4-ylmethyl)-1H-pyrrole-2-carboxamide], the IC50 in [1] was 0.404 µM; in data set [2] it was greater than 25 µM; in data set [3] it was greater than 25 µM; in [4], greater than 25 µM. In data set [2], the “24 hr Dox Inducible IL2FLGluc 293FRT/TO: IL2/PD1” value is greater than 62. Moreover, the “24 hr Dox Inducible TNFaFLGluc 293FRT/TO: TNF/PD1” value in data set [4] was greater than 61. For the same compound, the EC50 was found to be 13.7 µM in data set [5] and 17.3 µM in data set [6]. Moreover, in data set [7], the “Liver Microsome Stability (Multiple Species): Mouse - % Remaining after 30 min w/ NADPH (%)” value was found to be 0.05%. In addition, the “Liver Microsome Stability (Multiple Species): Rat - % Remaining after 30 min w/ NADPH (%)” value in data set [8] is on record as less than 1%. Further, the “Liver Microsome Stability (Multiple Species): Monkey - % Remaining after 30 min w/ NADPH (%)” value in data set [9] was less than 1%. The “Liver Microsome Stability (Multiple Species): Human - % Remaining after 30 min w/ NADPH (%)” value in data set [10] is reported as less than 1%.
As for `O=C(Nc1nc(/C=C/C2CCCC2)cs1)c1cccn1Cc1ccnc(F)c1` [Compound B26, (E)-N-(4-(2-cyclopentylvinyl)thiazol-2-yl)-1-((2-fluoropyridin-4-yl)methyl)-1H-pyrrole-2-carboxamide], the IC50 came out at 0.117 µM in [1], 0.737 µM in [2], 0.332 µM in data set [3] and 3.82 µM in data set [4]. Besides, in data set [2], the “24 hr Dox Inducible IL2FLGluc 293FRT/TO: IL2/PD1” value is given as 6. Besides, in data set [4], the “24 hr Dox Inducible TNFaFLGluc 293FRT/TO: TNF/PD1” value worked out at 33. The EC50 in [5] amounted to 7.13 µM; in [6] it was 19.7 µM. For the same compound, the “Liver Microsome Stability (Multiple Species): Mouse - % Remaining after 30 min w/ NADPH (%)” value in [7] was 31%. In addition, the “Liver Microsome Stability (Multiple Species): Rat - % Remaining after 30 min w/ NADPH (%)” value in data set [8] is given as 10%. Moreover, the “Liver Microsome Stability (Multiple Species): Monkey - % Remaining after 30 min w/ NADPH (%)” value in data set [9] was less than 1%. For the same compound, the “Liver Microsome Stability (Multiple Species): Human - % Remaining after 30 min w/ NADPH (%)” value in data set [10] is reported as 59%.
